Experimental data reported in patent US8080246B2, “Colony stimulating factor 1 receptor (CSF1R) extracellular domain fusion molecules” (Five Prime Therapeutics, Inc., priority 2008, dated 2011).
Read-outs that look alike come from different tables or passages of the source.

How the values were obtained:
CSF1 = molecular target: T1, CSF1 (Homo sapiens, UniProt P09603); experiment: Biacore SPR CSF1 ligand binding affinity and kinetics; conditions: proteins expressed in CHO cells; Biacore (Table 4)
T1 sequence (P09603 33-554): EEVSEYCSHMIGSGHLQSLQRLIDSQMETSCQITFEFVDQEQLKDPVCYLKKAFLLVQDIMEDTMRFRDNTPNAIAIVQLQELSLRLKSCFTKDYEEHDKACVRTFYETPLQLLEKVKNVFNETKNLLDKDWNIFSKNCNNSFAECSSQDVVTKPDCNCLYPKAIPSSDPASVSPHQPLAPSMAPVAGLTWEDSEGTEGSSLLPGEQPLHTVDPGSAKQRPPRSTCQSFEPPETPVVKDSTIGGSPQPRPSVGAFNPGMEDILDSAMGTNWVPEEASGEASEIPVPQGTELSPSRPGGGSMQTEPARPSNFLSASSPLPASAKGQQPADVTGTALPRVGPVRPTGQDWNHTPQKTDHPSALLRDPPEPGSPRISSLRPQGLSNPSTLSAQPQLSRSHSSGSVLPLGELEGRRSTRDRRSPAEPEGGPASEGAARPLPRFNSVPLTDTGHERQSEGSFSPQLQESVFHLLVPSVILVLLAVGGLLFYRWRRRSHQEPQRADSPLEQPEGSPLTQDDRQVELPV
Method: The CSF1 and IL34 ligand binding affinity and kinetics of the hCSF1R.506-GS-Fc and hCSF1R.512-GS-Fc fusion proteins were determined using Biacore® X surface plasmon resonance (SPR) technology (Uppsala, Sweden). CSF1 and IL34 are the only two ligands known to interact with the CSF1R ECD. The CSF1 and IL34 binding experiments were carried out using methodology similar to that described in Lin et al., Science 320:807-811, (2008).
In order to compare the relative ligand binding affinity of hCSF1R.506 (SEQ ID NO:2) and hCSF1R.506-Fc (SEQ ID NO:6) proteins expressed in CHO cells to CSF1, a Biacore® assay was used.

human primary monocytes = experiment: Human monocyte viability (CellTiter-Glo ATP); type: cell-based; conditions: four days incubation; ATP levels; protein from 293-6E cells; read-out: IC50, inhibition of human monocyte viability
Method: Primary monocytes were isolated from human peripheral blood mononuclear cells (PBMC) through size sedimentation over Percoll columns as described (de Almeida et al., Mem Inst Oswaldo Cruz 95(2):221-223, (2000)). In this experiment, 1×10^4 freshly isolated human primary monocytes per well of a 96-well plate were incubated with the hCSF1R.506-GS-Fc or hCSF1R.512-GS-Fc fusion protein (0.01-120 nM) and the cells were incubated at 37° C. with 5% CO2. After four days, ATP levels in the cells were determined using the CellTiter-Glo Luminescent Cell Viability Assay Kit (Promega, Cat. No. G7571), according to the manufacturer's instructions, as a measurement of cell viability.

CIA mouse model [1] = experiment: Mouse collagen-induced arthritis (CIA) model, Example 9; type: in vivo; conditions: relative to vehicle, p<0.01
CIA mouse model [2] = experiment: Mouse collagen-induced arthritis (CIA) model, Example 13 (clinical score, histology, serum PYD); type: in vivo; conditions: for clinical arthritis scores: FIG. 9; for serum pyridinoline (PYD) levels: vs vehicle control, ELISA, FIG. 12
EAE mouse model = conditions: for reduction in the EAE clinical score: relative to vehicle
Method: The CSF1R ECD fusion molecules were also tested for their ability to inhibit MS disease pathology in a mouse model of MS. These experiments used the mouse experimental autoimmune encephalomyelitis (EAE) model, which is widely used as a model of MS in humans. See, for example, Steinman and Zamvil, TRENDS in Immunology, 26(11):565-571 (2005). In the EAE model, disease progression and associated pathology may be measured according to the following EAE clinical score: no clinical disease (Score: 0); tail flaccidity (Score: 1); hind limb weakness (Score: 2); hind limb paralysis (Score: 3); forelimb paralysis or loss of ability to right from supine (stand up from a supine position) (Score: 4); and moribund (near death) or dead (Score: 5). […] The mCSF1R.506-Fc fusion protein (m506) was tested to determine whether it could decrease the EAE clinical scores or body weight loss. The mCSF1R.506-Fc fusion protein (SEQ ID NO.:8) was expressed and purified from the culture media of CHO cells stably transfected with the mCSF1R.506-Fc/pDEF38 plasmid vector as described in Example 2.
For the EAE mouse model experiments, 60 female C57BL/6 mice, age […], were divided into five groups: • Group 1: Vehicle control (Vehicle) (phosphate buffered saline, PBS), 100 μl, i.p., 3 times a week for up to 7 weeks; • Group 2: Methotrexate positive control (MTX), 10 mg/kg, i.v., q3d for up to 7 weeks; • Group 3: mCSF1R.506-Fc, 1 mg/kg, i.p., 3 times a week for up to 7 weeks; • Group 4: mCSF1R.506-Fc, 10 mg/kg, i.p., 3 times a week for up to 7 weeks; • Group 5: mCSF1R.506-Fc, 20 mg/kg, i.p., 3 times a week for up to 7 weeks.
Each group consisted of 12 mice. EAE induction was performed according to the following protocol: 300 ug of myelin oligodendrocyte glycoprotein (MOG)35-55 peptide was dissolved in 100 ul PBS and emulsified in an equal volume of complete Freund's adjuvant (CFA) containing 5 mg/ml Mycobacterium tuberculosis H37 RA. The emulsion (200 ul) was injected subcutaneously into the flank of the mice on days 0 and 7. Pertussis toxin (500 ng in 500 ul of PBS; List Biological Labs) was administered intravenously into each tail vein on days 0 and 2.
The MTX (10 mg/kg) was administered intravenously once every 3 days (q3d) for up to seven weeks starting on day 0; mCSF1R.506-Fc (1 mg/kg, 10 mg/kg, or 20 mg/kg), or vehicle (PBS) was administered intraperitoneally to the EAE mice in a 0.2 ml volume three times per week for 45 days, starting on day 0. The EAE clinical scores were measured prior to each dosing of PBS, MTX, or mCSF1R.506-Fc, using the above-mentioned scoring system. Body weights were recorded on day 0 before treatment was initiated, and were then measured at least twice per week including the day the study was terminated for seven weeks (on days 0, 2, 6, 8, 10, 13, 16, 17, 20, 22, 24, 27, 29, 31, 34, 36, 38, 41, 43, and 45).

[3] = system: CD115+ GR1- monocytes in the spleen; experiment: Depletion of CD115+ GR1- monocytes from spleen (flow cytometry); type: in vivo, mouse; conditions: DBA1 mice, 20 mg/kg i.p. 3 times per week, two weeks
Method: Male DBA1 mice were administered i.p. 3 times per week with saline or mCSF1R.506-Fc protein (SEQ ID NO:34) at 20 mg/kg. After two weeks of treatment, spleens were harvested for analysis of monocytes by flow cytometry as described (Liu et al., Science 324: 392 (2009)). Cells were stained at 4° C. in PBS with 5% (vol/vol) FBS. An LSR II (Becton Dickinson) was used for multiparameter flow cytometry of stained cell suspensions, followed by analysis with FlowJo software (TreeStar).

[4] = system: peripheral blood monocytes (F4/80+, CD11b+); experiment: Depletion of mouse monocytes from peripheral blood after minicircle DNA tail vein transfection; type: in vivo; conditions: C57BL/6 mouse; 30 ug minicircle DNA by hydrodynamic tail vein transfection; about three weeks; vs saline
Method: The mCSF1R.506-GS-Fc fusion protein (SEQ ID NO.:34) was expressed in vivo to determine whether it could deplete mouse monocytes from peripheral blood as a measure of in vivo biological activity. For these experiments, the minicircle DNA vector (mCSF1R.506-GS-Fc/p2xC31MasterSfi) containing the polynucleotides encoding mCSF1R.506-GS-Fc described in Example 1 was employed. For these experiments, 30 ug of CSF1R.506-GS-Fc-encoding minicircle DNA was injected into a C57BL/6 mouse tail vein by hydrodynamic tail vein transfection (TVT) as described (Ozaki et al., J Immunol, 173(9):5361-5371 (2004)). Saline was injected as a negative control. Approximately three weeks after the tail vein injection, peripheral blood cells were isolated and monocyte levels were determined using FACS analysis with anti-CD11b and anti-F4/80 antibodies according to the manufacturer's instruction (BD Biosciences) to detect monocyte marker-positive cells (F4/80^+, CD11b^+).

For “hCSF1R.506: human CSF1R ECD corresponding to SEQ ID NO.:2 (amino acids 1-506), without fusion partner”, the Kd (CSF1) was 28.9 nM, the “ka, binding to CSF1” value (CSF1) was 2.80E+04 l/Ms and the kd, binding to CSF1 (CSF1) was 0.000809 s⁻¹.
In the case of “hCSF1R.512-GS-Fc: Full-length human CSF1R ECD fused to GS-Fc; SEQ ID NO. 31”, the IC50 (human primary monocytes) is reported as 17.5 nM.
ENBREL® [reference compound] was tested, and the “inhibition of CIA arthritis score” value (CIA mouse model [1]; 10 mg/kg i.p. twice weekly for 34 days) was “about 40%”, the clinical arthritis scores (CIA mouse model [2]; 10 mg/kg i.p. daily) was “inhibited clinical scores” and the “serum pyridinoline (PYD) levels” value (CIA mouse model [2]; CIA mice) was “not significant statistically”.
“mCSF1R.506-Fc: Mouse CSF1R ECD lacking the five C-terminal residues fused to an Fc; SEQ ID NO. 8” was tested, and the “reduction in the EAE clinical score” value (EAE mouse model; 1 mg/kg i.p. 3 times a week, p<0.001) was 55%, the “reduction in the EAE clinical score” value (EAE mouse model; 10 mg/kg i.p. 3 times a week, p<0.01) was 40% and the “reduction in the EAE clinical score” value (EAE mouse model; 20 mg/kg i.p. 3 times a week, p<0.001) was 78%. For the same compound, the “higher body weight relative to vehicle control” value (EAE mouse model; EAE mice, average of three doses (1, 10, 20 mg/kg), p<0.01-0.001) was 8%, the “reduction of CIA arthritis score” value (CIA mouse model [1]; 20 mg/kg i.p. daily for 34 days) was “about 75%” and the “inflammation, pannus formation, cartilage damage, bone resorption scores” value (CIA mouse model [2]; 2 mg/kg, 6 mg/kg and 20 mg/kg, compared to vehicle treated mice, FIG. 11) was “significantly decreased inflammation, pannus formation, cartilage damage, and bone resorption”. For the same compound, the clinical arthritis scores (CIA mouse model [2]; 2, 6 and 20 mg/kg i.p., dose-dependent) was “significantly reduced clinical arthritis scores”, the “pannus formation, cartilage damage, bone resorption in histologic joint sections” value (CIA mouse model [2]; CIA mice, FIG. 10) was “significantly decreased pannus formation, cartilage damage, and bone resorption” and the “serum pyridinoline (PYD) levels” value (CIA mouse model [2]; CIA mice) was “significantly lower”. For the same compound, the “decrease in number of CD115+GR1- cells per spleen” value ([3]; FIG. 14) was “more than 50%” and the “CD115+GR1- monocytes in the spleen” value ([3]; vs saline, FIG. 13) was “significant reduction”.
For “hCSF1R.506-GS-Fc: Human CSF1R ECD lacking the six C-terminal residues fused to GS-Fc; SEQ ID NO. 32”, the IC50 (human primary monocytes) was 8.8 nM.
For `CN(Cc1cnc2nc(N)nc(N)c2n1)c1ccc(C(=O)N[C@@H](CCC(=O)O)C(=O)O)cc1` [MTX, Methotrexate, reference compound], the “reduction in the EAE clinical score” value (EAE mouse model; 10 mg/kg i.v. q3d, p<0.001) was 95%.
With “mCSF1R.506-GS-Fc: Mouse CSF1R ECD lacking the five C-terminal residues fused to GS-Fc; SEQ ID NO. 34” the “monocyte marker-positive cells (F4/80+, CD11b+) in peripheral blood” value [4] was “depletion of mouse monocytes from peripheral blood”.
